The supplement of paper PMC4862054

Legend:
Conditions in all cases: incubation time: 72 h
[1] = system: CAL-148; assay: normalised viability (% of control), CellTiter-Blue; higher = more viable cells (about 100 = DMSO control)
Procedure: (§1)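 DSRT, CellTiter-Blue viability, 72 h incubation. Signal is normalised to DMSO and benzethonium chloride controls. Value is the normalised response at dose 6.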

[2] = system: CAL-51; assay: as above
Procedure: as §1

[3] = system: HDQ-P1; assay: as above
Procedure: as §1

[4] = system: DU-4475; assay: as above
Procedure: as §1

[5] = system: CAL-85-1; assay: as above
Procedure: as §1

[6] = system: MDA-MB-453; assay: as above
Procedure: as §1

[7] = system: MFM-223; assay: normalised response (% of control), CellTox Green; higher = less cell death (100 = DMSO, 0 = benzethonium chloride kill control)
Summary of the method: (§2)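 For each plate, 0.1 % DMSO was set to 100 and a positive kill control to 0. Breast cancer cell lines (20 µl suspension) were seeded into 384-well plates already holding compound at 5 concentrations in 10-fold steps over a 10,000-fold range chosen per compound, and incubated for 72 h. CellTox Green fluorescence at 485/520 nm was read before CellTiter-Glo luminescence, which followed 10 min at room temperature. Each value is the normalised signal at one concentration.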

[8] = system: HCC1937; assay: as above
Summary of the method: as §2

[9] = system: HCC1599; assay: as above
Summary of the method: as §2

[10] = system: CAL-148; assay: as above
Summary of the method: as §2

[11] = system: CAL-120; assay: as above
Summary of the method: as §2

[12] = system: MCF-10A; assay: as above
Summary of the method: as §2

[13] = system: CAL-51; assay: as above
Summary of the method: as §2

[14] = system: DU-4475; assay: as above
Summary of the method: as §2

[15] = system: BT-549; assay: as above
Summary of the method: as §2

[16] = system: Hs578T; assay: as above
Summary of the method: as §2

[17] = system: MDA-MB-436; assay: as above
Summary of the method: as §2

[18] = system: CAL-85-1; assay: as above
Summary of the method: as §2

[19] = system: HCC1143; assay: as above
Summary of the method: as §2

[20] = system: MDA-MB-231; assay: as above
Summary of the method: as §2

[21] = system: MDA-MB-453; assay: as above
Summary of the method: as §2

[22] = system: MDA-MB-468; assay: as above
Summary of the method: as §2

[23] = system: BT-474; assay: as above
Summary of the method: as §2

[24] = system: MFM-223; assay: normalised response (% of control), CellTiter-Glo; higher = more viable cells (100 = DMSO, 0 = benzethonium chloride kill control)
Procedure: (§3)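 DSRT, 72 h incubation, CellTox Green / CellTiter-Glo readout. Signal is normalised to DMSO and benzethonium chloride controls. Value is the normalised response at the highest dose.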

[25] = system: HCC1937; assay: as above
Procedure: as §3

[26] = system: HCC1599; assay: as above
Procedure: as §3

[27] = system: CAL-148; assay: as above
Procedure: as §3

[28] = system: CAL-120; assay: as above
Procedure: as §3

[29] = system: MCF-10A; assay: as above
Procedure: as §3

[30] = system: CAL-51; assay: as above
Procedure: as §3

[31] = system: HDQ-P1; assay: as above
Procedure: as §3

[32] = system: DU-4475; assay: as above
Procedure: as §3

[33] = system: SK-BR-3; assay: as above
Procedure: as §3

[34] = system: BT-549; assay: as above
Procedure: as §3

[35] = system: Hs578T; assay: as above
Procedure: as §3

[36] = system: MDA-MB-436; assay: as above
Procedure: as §3

[37] = system: CAL-85-1; assay: as above
Procedure: as §3

[38] = system: HCC1143; assay: as above
Procedure: as §3

[39] = system: MDA-MB-231; assay: as above
Procedure: as §3

[40] = system: MDA-MB-453; assay: as above
Procedure: as §3

[41] = system: MDA-MB-468; assay: as above
Procedure: as §3

[42] = system: BT-474; assay: as above
Procedure: as §3

[43] = system: HDQ-P1; assay: normalised response (% of control), CellTox Green; higher = less cell death (100 = DMSO, 0 = benzethonium chloride kill control)
Summary of the method: as §2

Clc1ccc(C(c2ccccc2Cl)C(Cl)Cl)cc1 (centres undefined) [Mitotane] (300 nM)
normalised viability [1]: 101%
normalised viability [2]: 109%
normalised viability [3]: 92.5%
normalised viability [4]: 95%
normalised viability [5]: 94.5%
normalised viability [6]: 110%

CC[C@]1(O)C[C@@H]2CN(CCc3c([nH]c4ccccc34)[C@@](C(=O)OC)(c3cc4c(cc3OC)N(C)[C@H]3[C@@](O)(C(=O)OC)[C@H](OC(C)=O)[C@]5(CC)C=CCN6CC[C@]43[C@@H]65)C2)C1 [Vinblastine] (30 nM)
normalised viability [1]: 17.2%
normalised viability [2]: 49.7%
normalised viability [3]: 31.5%
normalised viability [4]: 67.4%
normalised viability [5]: 36.2%
normalised viability [6]: 29.1%

C[C@]1(c2nc3c(C(N)=O)cccc3[nH]2)CCCN1 [Veliparib] (300 nM)
normalised viability [1]: 100%
normalised viability [2]: 105%
normalised viability [3]: 65.5%
normalised viability [4]: 89.9%
normalised viability [5]: 85.2%
normalised viability [6]: 101%

S=c1[nH]cnc2nc[nH]c12 [Mercaptopurine] (300 nM)
normalised viability [1]: 102%
normalised viability [2]: 97.8%
normalised viability [3]: 76.6%
normalised viability [4]: 112%
normalised viability [5]: 83.8%
normalised viability [6]: 110%

CN1CCC(COc2cnc(-c3cccc(Cn4nc(-c5cccc(C#N)c5)ccc4=O)c3)nc2)CC1 (300 nM)
normalised viability [1]: 86.9%
normalised viability [2]: 101%
normalised viability [3]: 81.3%
normalised viability [4]: 105%
normalised viability [5]: 93.4%
normalised viability [6]: 94.5%

COc1cccc2c1C(=O)c1c(O)c3c(c(O)c1C2=O)C[C@@](O)(C(=O)CO)C[C@@H]3O[C@H]1C[C@H](N)[C@H](O)[C@H](C)O1 [Doxorubicin] (30 nM)
normalised viability [1]: 58.7%
normalised viability [2]: 87.1%
normalised viability [3]: 75.2%
normalised viability [4]: 55%
normalised viability [5]: 92.2%
normalised viability [6]: 100%

CN(C)C/C=C/C(=O)Nc1cc2c(Nc3ccc(F)c(Cl)c3)ncnc2cc1O[C@H]1CCOC1 [Afatinib] (300 nM)
normalised viability [1]: 74.2%
normalised viability [2]: 101%
normalised viability [3]: 46.1%
normalised viability [4]: 84.6%
normalised viability [5]: 52.9%
normalised viability [6]: 36.5%

COc1cc(Nc2ncc3c(n2)-c2ccc(Cl)cc2C(c2c(F)cccc2OC)=NC3)ccc1C(=O)O [MLN8237] (300 nM)
normalised viability [1]: 49.2%
normalised viability [2]: 35.9%
normalised viability [3]: 44.1%
normalised viability [4]: 9.79%
normalised viability [5]: 44%
normalised viability [6]: 64.7%

N#CC[C@H](C1CCCC1)n1cc(-c2ncnc3[nH]ccc23)cn1 [Ruxolitinib] (300 nM)
normalised viability [1]: 95.1%
normalised viability [2]: 86.7%
normalised viability [3]: 73.3%
normalised viability [4]: 114%
normalised viability [5]: 92%
normalised viability [6]: 78.4%

CC(=O)O[C@]1(C(C)=O)CC[C@H]2[C@@H]3C=C(C)C4=CC(=O)CC[C@]4(C)[C@H]3CC[C@@]21C [Megestrol acetate] (10000 nM)
normalised response [7]: 103%
normalised response [8]: 84%
normalised response [9]: 95.9%
normalised response [10]: 99.9%
normalised response [11]: 96.6%
normalised response [12]: 102%
normalised response [13]: 111%
normalised response [14]: 97.6%
normalised response [15]: 105%
normalised response [16]: 58.5%
normalised response [17]: 88.3%
normalised response [18]: 109%
normalised response [19]: 112%
normalised response [20]: 123%
normalised response [21]: 99.8%
normalised response [22]: 176%
normalised response [23]: 99.2%
normalised response [24]: 91.7%
normalised response [25]: 98%
normalised response [26]: 99.5%
normalised response [27]: 88.7%
normalised response [28]: 90%
normalised response [29]: 135%
normalised response [30]: 123%
normalised response [31]: 102%
normalised response [32]: 93.9%
normalised response [33]: 89%
normalised response [34]: 107%
normalised response [35]: 94.5%
normalised response [36]: 96%
normalised response [37]: 97.7%
normalised response [38]: 102%
normalised response [39]: 124%
normalised response [40]: 91.3%
normalised response [41]: 95.9%
normalised response [42]: 111%

CCN1CCN(c2ccc(Nc3cc(N(C)C(=O)Nc4c(Cl)c(OC)cc(OC)c4Cl)ncn3)cc2)CC1 [NVP-BGJ398] (1000 nM)
normalised response [7]: 94.1%
normalised response [8]: 52.5%
normalised response [9]: 100%
normalised response [10]: 98.1%
normalised response [11]: 89.3%
normalised response [12]: 73.2%
normalised response [13]: 105%
normalised response [43]: 101%
normalised response [14]: 97.7%
normalised response [15]: 84.6%
normalised response [16]: 115%
normalised response [17]: 102%
normalised response [18]: 119%
normalised response [19]: 105%
normalised response [21]: 81.6%
normalised response [22]: 71.5%
normalised response [23]: 102%
normalised response [24]: 50.3%
normalised response [25]: 95.7%
normalised response [26]: 98.7%
normalised response [27]: 96.5%
normalised response [28]: 71.1%
normalised response [29]: 101%
normalised response [30]: 128%
normalised response [31]: 99.8%
normalised response [32]: 100%
normalised response [33]: 97.7%
normalised response [34]: 75.9%
normalised response [35]: 86.2%
normalised response [36]: 92.7%
normalised response [37]: 101%
normalised response [38]: 93.6%
normalised response [39]: 96.2%
normalised response [40]: 105%
normalised response [41]: 97.2%
normalised response [42]: 91.3%

O=C(c1ccc(C(=O)N2CCC(N3CCCC3)CC2)c(Nc2ccccc2)c1)N1CCC(N2CCCC2)CC1 [UNC1215] (30000 nM)
normalised response [7]: 105%
normalised response [8]: 98.5%
normalised response [9]: 94.3%
normalised response [10]: 101%
normalised response [11]: 98.6%
normalised response [12]: 82.8%
normalised response [13]: 106%
normalised response [43]: 50.2%
normalised response [14]: 98.2%
normalised response [15]: 86.1%
normalised response [16]: 84.2%
normalised response [17]: 93.4%
normalised response [18]: 116%
normalised response [20]: 88.8%
normalised response [21]: 102%
normalised response [22]: 135%
normalised response [23]: 102%
normalised response [24]: 95.1%
normalised response [25]: 94.2%
normalised response [26]: 96%
normalised response [27]: 93.8%
normalised response [28]: 107%
normalised response [29]: 95.4%
normalised response [30]: 99.6%
normalised response [31]: 97.7%
normalised response [32]: 94.8%
normalised response [33]: 94%
normalised response [34]: 98%
normalised response [35]: 99.6%
normalised response [36]: 93.2%
normalised response [37]: 92.2%
normalised response [38]: 96.5%
normalised response [39]: 93.9%
normalised response [40]: 99.8%
normalised response [41]: 95%
normalised response [42]: 101%

COc1cc(Nc2ncc3c(n2)-c2ccc(Cl)cc2C(c2c(F)cccc2OC)=NC3)ccc1C(=O)O [Alisertib] (10000 nM)
normalised response [7]: 77.6%
normalised response [8]: 31.6%
normalised response [9]: 93.1%
normalised response [10]: 63.4%
normalised response [11]: 96.5%
normalised response [12]: -35.5%
normalised response [13]: 11.4%
normalised response [43]: 94.7%
normalised response [14]: 94%
normalised response [15]: 63%
normalised response [16]: 114%
normalised response [17]: 78.5%
normalised response [18]: 91.2%
normalised response [19]: 76%
normalised response [20]: 79.3%
normalised response [21]: 70.1%
normalised response [22]: -5.36%
normalised response [23]: 43.6%
normalised response [24]: 36.7%
normalised response [25]: 64.5%
normalised response [26]: 81.5%
normalised response [27]: 49.7%
normalised response [28]: 62.2%
normalised response [29]: 61.4%
normalised response [30]: 43.5%
normalised response [31]: 60.5%
normalised response [32]: 74%
normalised response [33]: 61.5%
normalised response [34]: 37.2%
normalised response [35]: 66.9%
normalised response [36]: 58.7%
normalised response [37]: 90.5%
normalised response [38]: 61.9%
normalised response [39]: 64.5%
normalised response [40]: 122%
normalised response [41]: 24.1%
normalised response [42]: 62%
